Reference: ChEMBL document CHEMBL6074707, “Targeting Cancer: A New Era in Cancer Therapy through Immune Fitness Modulation and KRAS Degradation” (ACS Med Chem Lett, 2024)

Experiments:
[1] = test system: Protein cereblon/GTPase KRas (Homo sapiens), P01116+Q96SW2 [G12D]; assay: PROTAC activity at CRBN/KRAS G12D mutant in human ASPC1 cells assessed as induction of protein degradation incubated for 24 hrs by Western blot analysis relative to control; type: cell-based
[2] = target: Protein cereblon/GTPase KRas (Homo sapiens, UniProt P01116+Q96SW2, G12D); assay: PROTAC activity at CRBN/KRAS G12D mutant in human ASPC1 cells assessed as induction of protein degradation incubated for 24 hrs by Western blot analysis; type: cell-based
Chain of Protein cereblon/GTPase KRas (P01116 whole entry G12D, stated change not applied): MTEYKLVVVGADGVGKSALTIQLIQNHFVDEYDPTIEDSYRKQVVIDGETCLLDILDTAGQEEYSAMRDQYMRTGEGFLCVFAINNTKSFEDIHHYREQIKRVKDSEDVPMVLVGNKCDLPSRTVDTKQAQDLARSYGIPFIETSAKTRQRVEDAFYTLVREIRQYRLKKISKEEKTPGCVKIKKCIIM
Chain of Protein cereblon/GTPase KRas (Q96SW2 whole entry, stated change not applied): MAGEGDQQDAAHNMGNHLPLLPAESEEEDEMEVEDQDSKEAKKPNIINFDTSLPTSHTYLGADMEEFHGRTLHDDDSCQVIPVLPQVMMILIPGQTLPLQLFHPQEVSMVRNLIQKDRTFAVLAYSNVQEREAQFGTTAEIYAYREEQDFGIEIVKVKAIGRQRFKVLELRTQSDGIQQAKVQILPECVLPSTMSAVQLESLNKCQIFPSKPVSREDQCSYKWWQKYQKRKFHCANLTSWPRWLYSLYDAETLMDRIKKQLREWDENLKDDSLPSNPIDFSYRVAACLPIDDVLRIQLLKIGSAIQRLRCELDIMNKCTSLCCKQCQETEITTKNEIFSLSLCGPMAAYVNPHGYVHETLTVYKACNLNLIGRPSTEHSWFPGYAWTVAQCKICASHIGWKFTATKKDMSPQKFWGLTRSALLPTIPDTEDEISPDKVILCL

Chain of Protein cereblon/GTPase KRas (Homo sapiens), P01116+Q96SW2 [G12D] (P01116 whole entry G12D): as the sequence (P01116 whole entry G12D, stated change not applied) above
Chain of Protein cereblon/GTPase KRas (Homo sapiens), P01116+Q96SW2 [G12D] (Q96SW2 whole entry partner): as the sequence (Q96SW2 whole entry, stated change not applied) above

Structure (SMILES) | Emax [1] [%] | DC50 [2] [nM]
C#Cc1c(F)ccc2cc(O)cc(-c3ncc4c(N5C[C@H]6CC[C@@H](C5)N6)nc(OCCN5CCC(C(F)(F)C6CCN(CC7CCN(c8ccc9c(c8F)CN(C8CCC(=O)NC8=O)C9=O)CC7)CC6)CC5)nc4c3F)c12 (some centres undefined) | > 70 | ≤ 100
C#Cc1c(F)ccc2cc(O)cc(-c3ncc4c(N5C[C@H]6CC[C@@H](C5)N6)nc(OCCN5CCC(CC6CCN(CC7CCN(c8ccc9c(c8)CN(C8CCC(=O)NC8=O)C9=O)CC7)CC6)CC5)nc4c3F)c12 (some centres undefined) | > 70 | ≤ 100
C#Cc1c(F)ccc2cc(O)cc(-c3ncc4c(N5C[C@H]6CC[C@@H](C5)N6)nc(OCCN5CCC(CC6(F)CCN(CC7CCN(c8ccc9c(c8)CN(C8CCC(=O)NC8=O)C9=O)CC7)CC6)CC5)nc4c3F)c12 (some centres undefined) | 25 | > 1000
C#Cc1c(F)ccc2cc(O)cc(-c3ncc4c(N5C[C@H]6CC[C@@H](C5)N6)nc(OCCN5CCC6(CC5)CCN(CC5CCN(c7ccc8c(c7)CN(C7CCC(=O)NC7=O)C8=O)CC5)CC6)nc4c3F)c12 (some centres undefined) | > 70 | ≤ 100
C#Cc1c(F)ccc2cc(O)cc(-c3ncc4c(N5C[C@H]6CC[C@@H](C5)N6)nc(OCCN5CCC(CN6CC7(CCN(c8ccc9c(c8)CN(C8CCC(=O)NC8=O)C9=O)CC7)C6)CC5)nc4c3F)c12 (some centres undefined) | > 70 | ≤ 100
C#Cc1c(F)ccc2cc(O)cc(-c3ncc4c(N5C[C@H]6CC[C@@H](C5)N6)nc(OCCN5CCC(CN6CCC7(CC6)CCN(c6ccc8c(c6)CN(C6CCC(=O)NC6=O)C8=O)CC7)CC5)nc4c3F)c12 (some centres undefined) | > 70 | ≤ 100
C#Cc1c(F)ccc2cc(O)cc(-c3ncc4c(N5C[C@H]6CC[C@@H](C5)N6)nc(OCCN5CCC(CN6CCC7(CC6)CCN(c6ccc8c(c6F)CN(C6CCC(=O)NC6=O)C8=O)CC7)CC5)nc4c3F)c12 (some centres undefined) | > 70 | ≤ 100
C#Cc1c(F)ccc2cc(O)cc(-c3ncc4c(N5C[C@H]6CC[C@@H](C5)N6)nc(OC[C@@H]5C[C@@H](OC6CCN(CC7CCN(c8ccc9c(c8)n(C)c(=O)n9C8CCC(=O)NC8=O)CC7)CC6)CN5C)nc4c3F)c12 (some centres undefined) | > 70 | ≤ 100
C#Cc1c(F)ccc2cc(O)cc(-c3ncc4c(N5C[C@H]6CC[C@@H](C5)N6)nc(OC[C@@H]5C[C@@H](OC6CCN(c7ccc8c(c7F)CN(C7CCC(=O)NC7=O)C8=O)CC6)CN5C)nc4c3F)c12 (some centres undefined) | > 70 | ≤ 100
C#Cc1c(F)ccc2cc(O)cc(-c3ncc4c(N5C[C@H]6CC[C@@H](C5)N6)nc(OCCN5CCC(CC6CCN(CC7CCN(c8ccc9c(c8F)CN(C8CCC(=O)NC8=O)C9=O)CC7)CC6)CC5)nc4c3F)c12 (some centres undefined) | > 70 | ≤ 100
C#Cc1c(F)ccc2cc(O)cc(-c3ncc4c(N5C[C@H]6CC[C@@H](C5)N6)nc(OCCN5CCC(CC6CCN(CC7CCN(c8ccc9c(c8)n(C)c(=O)n9C8CCC(=O)NC8=O)CC7)CC6)CC5)nc4c3F)c12 (some centres undefined) | > 70 | ≤ 100
C#Cc1c(F)ccc2cc(O)cc(-c3ncc4c(N5CC6CCC(C5)N6)nc(OC[C@]56CCCN5[C@H](CN5CCN(CC7CCN(c8ccc9c(c8)CN(C8CCC(=O)NC8=O)C9=O)CC7)CC5)CC6)nc4c3F)c12 (some centres undefined) | > 70 | ≤ 100
